Results taken from BindingDB's records for doi:10.1016/j.bmcl.2010.11.084 (Merck Frosst Centre For Therapeutic Research, 2011).
pIC50: −log10 of the molar value.

Test: Antagonist activity at CRTH2 in human eosinophil assessed as effect of cellular shape change by EOS assay

SMILES	pIC50
CN(C(=O)C1(c2ccc(F)cc2)CC1(C)C)[C@@H]1CCc2c(CC(=O)O)c3cccnc3n2C1 (stereo partly drawn) [2-((8R)-8-(1-(4-fluorophenyl)-N,2,2-trimethylcyclopropanecarboxamido)-6,7,8,9-tetrahydropyrido[3,2-b]indolizin-5-yl)acetic acid]	8.62
C[C@@H](C(=O)N(C)[C@@H]1CCc2c(CC(=O)O)c3cccnc3n2C1)c1ccc(F)cc1 [2-((R)-8-((R)-2-(4-fluorophenyl)-N-methylpropanamido)-6,7,8,9-tetrahydropyrido[3,2-b]indolizin-5-yl)acetic acid]	8.92
CN(C(=O)C1(c2ccc(F)cc2)CCC1)[C@@H]1CCc2c(CC(=O)O)c3cccnc3n2C1 [(R)-2-(8-(1-(4-fluorophenyl)-N-methylcyclobutanecarboxamido)-6,7,8,9-tetrahydropyrido[3,2-b]indolizin-5-yl)acetic acid]	8.92
CN(C(=O)C1(c2ccc(F)cc2)CCCC1)[C@@H]1CCc2c(CC(=O)O)c3cccnc3n2C1 [(R)-2-(8-(1-(4-fluorophenyl)-N-methylcyclopentanecarboxamido)-6,7,8,9-tetrahydropyrido[3,2-b]indolizin-5-yl)acetic acid]	8.47
CN(C(=O)C1(c2ccc(F)cc2)CC1)[C@@H]1CCc2c(CC(=O)O)c3cccnc3n2C1 [(R)-2-(8-(1-(4-fluorophenyl)-N-methylcyclopropanecarboxamido)-6,7,8,9-tetrahydropyrido[3,2-b]indolizin-5-yl)acetic acid]	8.51
CN(C(=O)C(C)(C)c1ccc(F)cc1)[C@@H]1CCc2c(CC(=O)O)c3cccnc3n2C1 [(R)-2-(8-(2-(4-fluorophenyl)-N,2-dimethylpropanamido)-6,7,8,9-tetrahydropyrido[3,2-b]indolizin-5-yl)acetic acid]	8.64
CN([C@@H]1CCc2c(CC(=O)O)c3ccc(-c4ccc(F)cc4)nc3n2C1)S(=O)(=O)c1ccc(F)cc1 [(R)-2-(8-(4-fluoro-N-methylphenylsulfonamido)-2-(4-fluorophenyl)-6,7,8,9-tetrahydropyrido[3,2-b]indolizin-5-yl)acetic acid]	7.80
CN([C@@H]1CCc2c(CC(=O)O)c3cccnc3n2C1)S(=O)(=O)c1ccc(F)cc1 [(R)-2-(8-(4-fluoro-N-methylphenylsulfonamido)-6,7,8,9-tetrahydropyrido[3,2-b]indolizin-5-yl)acetic acid]	8.15
